The values that follow come from patent US10653691B2, “Method of promoting remyelination” (Case Western Reserve University, priority 2013, dated 2020).

Assay [1] relates to muscarinic receptor subtypes (M1-M5). Put plainly: Muscarinic receptor antagonism, GeneBLAzer or Tango cellular reporter assays. The class given is cell-based. The conditions noted are these: 1 μM. As for the experimental part:
GeneBLAzer or Tango assays were performed to determine level of acetylcholine muscarinic receptor M1, M3, M5 (GeneBLAzer), M2 and […] (Tango) antagonism.
For orientation: Reporter assays use an easily measured gene product as a stand-in for the process of interest.

For assay [2], the system named is hESC- and hiPSC-derived human OPCs. Put plainly: Screening of human OPCs (MBP staining, HCA). The class given is cell-based. The conditions noted are these: 21 days; miconazole 1 μM, clobetasol 5 μM; vs DMSO. From the text: Human OPCs were generated from skin fibroblast-derived human iPSC line (CWRU43, Tesar laboratory) and hESC lines H7 (NIH Human Embryonic StemCell RegistryWA07; NIH approval number NIHhESC-10-0061) and H9 (NIH Human Embryonic Stem Cell Registry WA09; NIH approval number NIHhESC-10-0062) as previously described. iPSC- and hESC-derived OPCs were characterized by Sox10 (R&D Systems, AF2864; 1:100) staining, and then seeded in 96-well plates at 40,000 cells per well for drug testing. […] Plates were fixed and stained with MBP (Abcam, ab7349; 1:100) then imaged on the Operetta system. We analysed results with slight modification to HCA Acapella scripts used for mouse oligodendrocytes.

A further assay deals with ERK1/2. Put plainly: Western blot of ERK1/2 phosphorylation in OPCs. The conditions noted are these: OPCs treated for 1 h. The class given is cell-based, mouse. As for the experimental part:
EpiSC-derived OPCs were seeded into poly-Lornithine/laminin coated six-well plates and allowed to attach for 2 h in DMEM/F12 without additional factors. Cells were treated with indicated inhibitors or DMSO for 1 h-SCH772984 (ChemieTek, […]), SB590885 (Tocris, 10 nM), LY294002 (Tocris, 10 μM), and PD0325901 (Stemgent, 1 μM). Cells were then stimulated with drug or FGF2 (R&DSystems; 20 ng ml^−1) for 1 h and then lysed in 200 μL RIPA buffer (0.15 M NaCl, 0.05M Tris, pH=8.0, 1 mM EDTA, 1% Triton X-100, 0.1% SDS, 10% glycerol, HALT protease and phosphatase inhibitor (Thermo Fisher) added just before use) and incubated on ice for 20 min. Lysates were centrifuged at 4° C. and supernatant collected. Protein concentrations were determined by Pierce BCA protein assay kit (Thermo Fisher). Equal amounts of protein were resolved in a reduced manner on NuPAGE 4-12% Bis-Tris gels (Life Technologies) and transferred onto PVDF membranes (Life Technologies). Blots were blocked in either 5% BSA (phosphoprotein) or 5% milk (non phosphoprotein). Primary antibodies were all from the same vendor (Cell Signaling) and included phospho-Erk1/2 (4370S, clone D13.14.4E; 1:2,000), ERK1/2 (9107S, clone 3A7; 1:2,000), phospho-glucocorticoid receptor (4161S; 1:1,000), and glucocorticoid receptor (12041, clone D6H2L; 1:1,000) followed by incubation with HRP-conjugated secondary antibodies and chemiluminescent enhancement by West Pico substrate (Thermo Fisher).
For orientation: In western blotting, separated proteins are transferred to a membrane and probed.

In assay [3] the test system is PLP139-151- or MOG35-55-sensitized lymph node cells. Put plainly: Ex vivo lymphocyte recall assays. The class given is cell-based, mouse.
The next assay concerns LPC lesion mouse model. Nature of the assay: LPC-induced focal demyelination of the spinal cord and drug treatment. The class given is in vivo. The conditions noted are these: for MBP staining in the lesions: 8 and 12 d.p.l.; for number of newly generated CC1+ oligodendrocytes in the lesion core: 8 d.p.l., miconazole 10 or 40 mg per kg, clobetasol 2 mg per kg, vs vehicle; for extent of remyelination (electron micrographs, toluidine blue): lesions of treated mice. As to the method: Focal demyelination in the spinal cord was induced by the injection of 1% LPC solution. Ten- to 12-week-old C57BL/6 female mice were anaesthetized using isoflurane and a T10 laminectomy was performed. One microlitre of 1% LPC was infused into the dorsal column at a rate of […]. The animals were euthanized either at day 8 or day 12 after the laminectomy (n=6-9 per group). Animals that were euthanized at day 8 received vehicle or drug daily by intraperitoneal injection between days 3 and 7. Animals used in the day 12 experiments received vehicle or drug daily by intraperitoneal injection between days 4 and 11. Drugs were dissolved in DMSO and then diluted with sterile saline for injection. Mice were deeply anaesthetized using ketamine/xylazine rodent cocktail and then euthanized by transcardial perfusion with 4% PFA for histological analysis or 4% PFA, 2% gluteraldehyde, and 0.1M sodium cacodylate for electron microscopy. PFA fixed tissue was equilibrated in 30% sucrose, embedded in OCT, and cryosectioned at 20 μm thickness and processed for CC1 and MBP immunohistochemistry. ImageJ was used to measure area of the lesion and CC1^+ cells within the lesion were scored manually. For CC1 scoring, sections were taken from the centre of each lesion to control for lesion variability.
Samples were processed as previously described.

For assay [4], the system named is 414 different kinase isoforms. Nature of the assay: Kinase profiling (LanthaScreen, Z'-LYTE, Adapta). The class given is biochemical. The conditions noted are these: 414 kinase isoforms. As for the experimental part:
LanthaScreen, Z9-LYTE, and Adapta kinase assays were performed by Select Screen (Life Technologies). LanthaScreen Eu kinase assays were performed in Greiner low-volume 384-well plates. Assay buffer consisted of 50 mM HEPES pH 7.5, 0.01% BRIJ-35, 10 mM MgCl2, 1 mM EGTA. Each well consisted of this mixture: 4.0 μl of 4 μM test drug in assay buffer, 8 μl of 2× kinase/Eu antibody mixture, and 4 μl of 4×Alexa Fluor 647 tracer. Plates were incubated for 60 min at room temperature (˜22° C.), then Alexa Fluor 647 emission (665 nm) and Europium emission (615 nm) read on a fluorescent plate reader. Data were analysed by generating the emission ratio (665 nm/615 nm) for each test point and normalizing 0% to control wells with no known inhibitor and 100% to control wells with highest concentration of known inhibitor.
Z′-LYTE assays were performed in Corning, low volume 384-well plates. Assay buffer consisted of 50 mM HEPES pH 7.5, 0.01% BRIJ-35, 10 mM MgCl2, 1 mM EGTA. […] Coumarin emission (445 nm) and fluorescein emission (520 nm) were read on a fluorescent plate reader. Data were analysed by normalizing out background fluorescence then generating the emission ratio (445 nm/520 nm) for each test point. […]
Adapta assays were performed in Corning, low volume 384-well plates. […] Alexa Fluor 647 emission (665 nm) and europium emission (615 nm) were read on a fluorescent plate reader. […]
For orientation: TR-FRET usually uses a lanthanide donor and a delayed reading to cut background.

Regarding `C[C@H]1C[C@H]2[C@@H]3CCC4=CC(=O)C=C[C@]4(C)[C@@]3(F)[C@@H](O)C[C@]2(C)[C@@]1(O)C(=O)CCl` [clobetasol], the “inhibition of muscarinic receptor subtypes M1-M5” value in assay [1] is on record as “Neither miconazole nor clobetasol inhibited any of the five muscarinic receptor subtypes”. Moreover, the “human OPC differentiation” value in assay [2] is listed as “enhanced human OPC differentiation”. Also, the “induction of ERK1/2 phosphorylation in OPCs” value in the assay with ERK1/2 is “did not induce ERK1/2 phosphorylation”. Moreover, the “proliferation and secretion of cytokines by sensitized lymph node cells” value in assay [3] (10^−9-10^−5 M) is “altered naïve T-cell differentiation and both the proliferation and secretion of cytokines”. Moreover, in the assay with LPC lesion mouse model, the “MBP staining in the lesions” value was “extensive MBP staining”; the “number of newly generated CC1+ oligodendrocytes in the lesion core” value is “significant increase in the number of newly generated CC1^+ oligodendrocytes”; the “extent of remyelination (electron micrographs, toluidine blue)” value is “striking increase in the extent of remyelination”. Moreover, the “myelin thickness relative to axon diameter (g ratio)” value in the assay on LPC lesion mouse model (12 d.p.l., compared with intact myelin) is listed as “thinner than intact myelin”. Moreover, the “inhibition of kinase activity” value in assay [4] is given as “Neither clobetasol nor miconazole inhibited any of the kinases tested”.
Turning to `Clc1ccc(COC(Cn2ccnc2)c2ccc(Cl)cc2Cl)c(Cl)c1` (centres unmarked) [miconazole], the “inhibition of muscarinic receptor subtypes M1-M5” value in assay [1] was “Neither miconazole nor clobetasol inhibited any of the five muscarinic receptor subtypes”. Moreover, the “human OPC differentiation” value in assay [2] is “enhanced human OPC differentiation, with miconazole exhibiting the most reproducible and potent effects”. The “induction of ERK1/2 phosphorylation in OPCs” value in the assay with ERK1/2 is “strong and sustained phosphorylation”. Also, in assay [3] (summary of immune cell survival and function assays), the “modulation of immune cell function” value is listed as “did not modulate immune cell function”. In the assay with LPC lesion mouse model, the “MBP staining in the lesions” value is recorded as “extensive MBP staining”; the “number of newly generated CC1+ oligodendrocytes in the lesion core” value is listed as “significant increase in the number of newly generated CC1^+ oligodendrocytes”; the “extent of remyelination (electron micrographs, toluidine blue)” value was “striking increase in the extent of remyelination”. Moreover, in assay [4], the “inhibition of kinase activity” value is “Neither clobetasol nor miconazole inhibited any of the kinases tested”.
